pIC50: −log10 of the molar value.
tested on: Mycobacterium tuberculosis strain EH4.0 expressing green-fluorescent protein (GFP); assay: microbe, parasite or virus in culture; assay type: cell-based; settings: 168 h, read-out: pIC50 (converted)

Compound | IC50 [nM]
CCc1nc2ccc(Cl)cn2c1C(=O)NCc1ccc(N2CCN(S(=O)(=O)C(F)(F)F)C=N2)c(F)c1 [Compound 9] | 0.631
Cc1cn2c(C(=O)NCc3ccc(N4CCN(S(=O)(=O)C(F)(F)F)C=N4)c(F)c3)c(C(F)(F)F)nc2s1 [Compound 136] | 6.31
COC1=NN(c2ccc(CNC(=O)c3c(C(F)F)nc4n3CCCC4)cc2F)CCN1S(=O)(=O)C(F)(F)F [Compound 137] | 6.17
CCc1nc2cc(F)c(Cl)cn2c1C(=O)NCc1ccc(N2CCN(S(=O)(=O)C(F)(F)F)C(OC)=N2)c(F)c1 [Compound 141] | 4.9
CCc1nc2ccc(Cl)cn2c1C(=O)NCc1cnc(N2CCN(S(=O)(=O)C(F)(F)F)C=N2)c(F)c1 [Compound 142] | 4.68
CCc1nc2ncc(Cl)cn2c1C(=O)NCc1ccc(N2CCN(S(=O)(=O)C(F)(F)F)C=N2)c(F)c1 [Compound 146] | 3.8
O=C(NCc1ccc(N2CCN(S(=O)(=O)C(F)(F)F)C=N2)c(F)c1)c1c(C(F)F)nc2n1CCCC2 [Compound 147] | 3.8
COC1=NN(c2ccc(CNC(=O)c3c(C(F)F)nc4ccccn34)cc2)CCN1S(=O)(=O)C(F)(F)F [Compound 149] | 3.55
COC1=NN(c2ccc(CNC(=O)c3c(C(F)(F)F)nc4ccccn34)cc2)CCN1S(=O)(=O)C(F)(F)F [Compound 150] | 2.95
Cc1cn2c(C(=O)NCc3ccc(N4CCN(S(=O)(=O)C(F)(F)F)C=N4)c(F)c3)c(C)nc2s1 [Compound 153] | 1.78
CCc1nc2nc(C)c(Cl)cn2c1C(=O)NCc1ccc(N2CCN(S(=O)(=O)C(F)(F)F)C=N2)c(F)c1 [Compound 155] | 1.62
CCc1nc2ccc(F)cn2c1C(=O)NCc1ccc(N2CCN(S(=O)(=O)C(F)(F)F)C=N2)c(F)c1 [Compound 156] | 1.38
CCc1nc2cc(F)c(Cl)cn2c1C(=O)NCc1ccc(N2CCN(S(=O)(=O)C(F)(F)F)C=N2)c(F)c1 [Compound 157] | 1.38
CCc1nc2nc3c(cn2c1C(=O)NCc1ccc(N2CCN(S(=O)(=O)C(F)(F)F)C(OC)=N2)c(F)c1)CCC3 [Compound 158] | 1.38
O=C(NCc1ccc(N2CCN(S(=O)(=O)C(F)(F)F)C=N2)c(F)c1)c1c(C(F)F)nc2ccccn12 [Compound 159] | 1.2
COC1=NN(c2ccc(CNC(=O)c3c(C(F)F)nc4ccccn34)cc2F)CCN1S(=O)(=O)C(F)(F)F [Compound 160] | 1.2
CCc1nc2sc(C)cn2c1C(=O)NCc1ccc(N2CCN(S(=O)(=O)C(F)(F)F)C=N2)c(F)c1 [Compound 163] | 0.316
CCc1nc2ccc(C)cn2c1C(=O)NCc1ccc(N2CCN(S(=O)(=O)C(F)(F)F)C=N2)c(F)c1 [Compound 164] | 0.245
CCc1nc2c(Br)cc(C)cn2c1C(=O)NCc1ccc(N2CCN(S(=O)(=O)C(F)(F)F)C=N2)c(F)c1 [Compound 166] | 245
O=C(NCc1cnc(N2CCN(S(=O)(=O)C(F)(F)F)C=N2)c(F)c1)c1c(C(F)(F)F)nc2ccc(Cl)cn12 [Compound 167] | 87.1

Compound | IC50 [nM]
CCc1nc2ncc(Cl)cn2c1C(=O)NCc1cnc(N2CCN(S(=O)(=O)C(F)(F)F)C=N2)c(F)c1 [Compound 168] | 38.9
CCc1nc2nc3c(cn2c1C(=O)NCc1ccc(N2CCN(S(=O)(=O)C(F)(F)F)C=N2)c(F)c1)CCOC3 [Compound 169] | 10
CCc1nc2nc(N)c(F)cn2c1C(=O)NCc1ccc(N2CCN(S(=O)(=O)C(F)(F)F)C=N2)c(F)c1 [Compound 170] | 316
CCc1nc2ccc(Cl)cn2c1C(=O)NCc1ccc(N2CCN(S(=O)(=O)C(F)(F)F)C=N2)nc1 [Compound 171] | 25.1
Cc1cc(F)c2ncc(C(=O)NCc3ccc(N4CCN(S(=O)(=O)C(F)(F)F)C=N4)c(F)c3)n2c1 [Compound 173] | 50.1
Cc1ccc2nc(C(F)(F)F)c(C(=O)NCc3ccc(N4CCN(S(=O)(=O)C(F)(F)F)C=N4)c(F)c3)n2c1 [Compound 175] | 1.58
Cc1ccc2nc(C(F)(F)F)c(C(=O)NCc3cnc(N4CCN(S(=O)(=O)C(F)(F)F)C=N4)c(F)c3)n2c1 [Compound 176] | 15.8
CCc1nc2nc(C)c(F)cn2c1C(=O)NCc1ccc(N2CCN(S(=O)(=O)C(F)(F)F)C=N2)c(F)c1 [Compound 177] | 7.94
Cc1cc(F)c2ncc(C(=O)NCc3cnc(N4CCN(S(=O)(=O)C(F)(F)F)C=N4)c(F)c3)n2c1 [Compound 178] | 200
CCc1nc2nc(OC)c(F)cn2c1C(=O)NCc1ccc(N2CCN(S(=O)(=O)C(F)(F)F)C=N2)c(F)c1 [Compound 179] | 126
CCc1nc2nc3c(cn2c1C(=O)NCc1ccc(N2CCN(S(=O)(=O)C(F)(F)F)C(OC)=N2)c(F)c1)CCOC3 [Compound 180] | 3.98
CCc1nc2c(F)cc(C)cn2c1C(=O)NCc1cnc(N2CCN(S(=O)(=O)C(F)(F)F)C=N2)c(F)c1 [Compound 181] | 6.31
O=C(NCc1cnc(N2CCN(S(=O)(=O)C(F)(F)F)C=N2)c(F)c1)c1c(C(F)(F)F)nc2c(F)cccn12 [Compound 182] | 31.6
CCc1nc2c(C)cc(C)cn2c1C(=O)NCc1cnc(N2CCN(S(=O)(=O)C(F)(F)F)C=N2)c(F)c1 [Compound 183] | 200
Cc1cc(F)c2nc(C(F)(F)F)c(C(=O)NCc3cnc(N4CCN(S(=O)(=O)C(F)(F)F)C=N4)c(F)c3)n2c1 [Compound 184] | 31.6
CCc1nc2cc(C)c(C)cn2c1C(=O)NCc1cnc(N2CCN(S(=O)(=O)C(F)(F)F)C=N2)c(F)c1 [Compound 185] | 46.8
O=C(NCc1ccc(N2CCN(S(=O)(=O)C(F)(F)F)C=N2)c(F)c1)c1c(C(F)(F)F)nc2c(F)cccn12 [Compound 186] | 3.63
CCc1nc2c(F)cc(C)cn2c1C(=O)NCc1cnc(N2CCNC=N2)c(F)c1 [Compound 187] | ≥ 501
CCc1nc2nc(OCc3ccccc3)c(F)cn2c1C(=O)NCc1ccc(N2CCN(S(=O)(=O)C(F)(F)F)C=N2)c(F)c1 [Compound 189] | ≥ 501
CCc1nc2cc3c(cn2c1C(=O)NCc1ccc(N2CCN(S(=O)(=O)C(F)(F)F)C=N2)c(F)c1)OCCN3C [Compound 191] | 38

Compound | IC50 [nM]
O=C(NCc1ccc(N2CCNC=N2)c(F)c1)c1c(C(F)(F)F)nc2ccccn12 [Compound 192] | > 500
CCc1nc2ncc(C)cn2c1C(=O)NCc1ccc(N2CCN(S(=O)(=O)C(F)(F)F)C(OC)=N2)c(F)c1 [Compound 193] | 0.891
CCc1nc2c(F)cc(C)cn2c1C(=O)NCc1ccc(N2CCNC=N2)c(F)c1 [Compound 198] | 93.3
CCc1nc2nc(C)c(Cl)cn2c1C(=O)NCc1ccc(N2CCNC=N2)c(F)c1 [Compound 199] | > 500
CCc1nc2ncc(C)cn2c1C(=O)NCc1ccc(N2CCN(S(=O)(=O)C(F)(F)F)C(OC)=N2)cc1 [Compound 200] | 5.5
CCc1nc2ncc(C)cn2c1C(=O)NCc1cnc(N2CCN(S(=O)(=O)C(F)(F)F)C=N2)c(F)c1 [Compound 201] | 12
CCc1nc2cc(F)c(Cl)cn2c1C(=O)NCc1ccc(N2CCNC=N2)c(F)c1 [Compound 202] | 389
CCc1nc2ccc(F)cn2c1C(=O)NCc1ccc(N2CCN(S(=O)(=O)C(F)(F)F)C(OC)=N2)c(F)c1 [Compound 204] | 4.47
CCc1nc2nc3c(cn2c1C(=O)NCc1ccc(N2CCN(S(=O)(=O)C(F)(F)F)C=N2)c(F)c1)OCCN3C [Compound 205] | 66.1
COC1=NN(c2ccc(CNC(=O)c3c(C(F)F)nc4ccc(Cl)cn34)cc2F)CCN1S(=O)(=O)C(F)(F)F [Compound 206] | 2.45
CCc1nc2n(ccc3ncnn32)c1C(=O)NCc1ccc(N2CCN(S(=O)(=O)C(F)(F)F)C=N2)c(F)c1 [Compound 207] | 186
CCc1nc2ccc(Cl)cn2c1C(=O)NCc1cnc(N2CCN(S(=O)(=O)C(F)(F)F)C=N2)c(C)c1 [Compound 208] | 69.2
CCc1nc2cc(Cl)c(C)cn2c1C(=O)NCc1ccc(N2CCN(S(=O)(=O)C(F)(F)F)C(OC)=N2)c(F)c1 [Compound 209] | 11.2
CCc1nc2c(F)cc(Cl)cn2c1C(=O)NCc1ccc(N2CCN(S(=O)(=O)C(F)(F)F)C(OC)=N2)c(F)c1 [Compound 210] | 3.02
CCc1nc2nc(C)c(C)cn2c1C(=O)NCc1ccc(N2CCN(S(=O)(=O)C(F)(F)F)C(OC)=N2)c(F)c1 [Compound 211] | 2.29
CCc1nc2c(N)cc(C)cn2c1C(=O)NCc1ccc(N2CCN(S(=O)(=O)C(F)(F)F)C=N2)c(F)c1 [Compound 212] | 25.7
CCc1nc2ccc(Cl)cn2c1C(=O)NCc1ccc(N2CCN(S(=O)(=O)C(F)(F)F)C(C)=N2)c(F)c1 [Compound 213] | 3.47
CC1=NN(c2ccc(CNC(=O)c3c(C(F)(F)F)nc4ccccn34)cc2)CCN1S(=O)(=O)C(F)(F)F [Compound 214] | 13.5
CCc1nc2ccc(C)cn2c1C(=O)NCc1ccc(N2CCN(S(=O)(=O)C(F)(F)F)C(C)=N2)cc1 [Compound 215] | 0.912
CCc1nc2nc3c(cn2c1C(=O)NCc1ccc(N2CCN(S(=O)(=O)C(F)(F)F)C(C)=N2)cc1)CCOC3 [Compound 217] | 14.1

tested on: Ca Ch; assay: CVS panel, Ca channel; settings: not given
Source text: (§1) The compounds of the invention/examples may have advantages associated with in vitro potency, kill kinetics (i.e. bactericidal effect) in vitro, PK properties, food effect, safety/toxicity (including liver toxicity, coagulation, […]), metabolic stability, Ames II negativity, MNT negativity, aqueous based solubility (and ability to formulate) and/or cardiovascular effect e.g. on animals (e.g. anesthetized guinea pig). The data below that was generated/calculated may be obtained using standard methods/assays, for instance that are available in the literature or which may be performed by a supplier (e.g. Microsomal Stability Assay—Cyprotex, Mitochondrial toxicity (Glu/Gal) assay —Cyprotex, as well as literature CYP cocktail inhibition assays). In some instances, GSH was measured (reactive metabolites, glucuronidation) to observe if a dihydrodiol is observed by LCMS (fragmentation ions), which would correspond to a dihydroxylation on the core heterocycle.

Compound | pIC50
CCc1nc2ccc(Cl)cn2c1C(=O)NCc1ccc(N2CCN(S(=O)(=O)C(F)(F)F)C=N2)c(F)c1 [Compound 9] | < 5.00

target: hERGdof (Homo sapiens, UniProt Q12809); assay: CVS panel, hERGdof; assay type: binding; settings: read-out: CVS hERGdof, IC50
Sequence (Q12809 whole entry): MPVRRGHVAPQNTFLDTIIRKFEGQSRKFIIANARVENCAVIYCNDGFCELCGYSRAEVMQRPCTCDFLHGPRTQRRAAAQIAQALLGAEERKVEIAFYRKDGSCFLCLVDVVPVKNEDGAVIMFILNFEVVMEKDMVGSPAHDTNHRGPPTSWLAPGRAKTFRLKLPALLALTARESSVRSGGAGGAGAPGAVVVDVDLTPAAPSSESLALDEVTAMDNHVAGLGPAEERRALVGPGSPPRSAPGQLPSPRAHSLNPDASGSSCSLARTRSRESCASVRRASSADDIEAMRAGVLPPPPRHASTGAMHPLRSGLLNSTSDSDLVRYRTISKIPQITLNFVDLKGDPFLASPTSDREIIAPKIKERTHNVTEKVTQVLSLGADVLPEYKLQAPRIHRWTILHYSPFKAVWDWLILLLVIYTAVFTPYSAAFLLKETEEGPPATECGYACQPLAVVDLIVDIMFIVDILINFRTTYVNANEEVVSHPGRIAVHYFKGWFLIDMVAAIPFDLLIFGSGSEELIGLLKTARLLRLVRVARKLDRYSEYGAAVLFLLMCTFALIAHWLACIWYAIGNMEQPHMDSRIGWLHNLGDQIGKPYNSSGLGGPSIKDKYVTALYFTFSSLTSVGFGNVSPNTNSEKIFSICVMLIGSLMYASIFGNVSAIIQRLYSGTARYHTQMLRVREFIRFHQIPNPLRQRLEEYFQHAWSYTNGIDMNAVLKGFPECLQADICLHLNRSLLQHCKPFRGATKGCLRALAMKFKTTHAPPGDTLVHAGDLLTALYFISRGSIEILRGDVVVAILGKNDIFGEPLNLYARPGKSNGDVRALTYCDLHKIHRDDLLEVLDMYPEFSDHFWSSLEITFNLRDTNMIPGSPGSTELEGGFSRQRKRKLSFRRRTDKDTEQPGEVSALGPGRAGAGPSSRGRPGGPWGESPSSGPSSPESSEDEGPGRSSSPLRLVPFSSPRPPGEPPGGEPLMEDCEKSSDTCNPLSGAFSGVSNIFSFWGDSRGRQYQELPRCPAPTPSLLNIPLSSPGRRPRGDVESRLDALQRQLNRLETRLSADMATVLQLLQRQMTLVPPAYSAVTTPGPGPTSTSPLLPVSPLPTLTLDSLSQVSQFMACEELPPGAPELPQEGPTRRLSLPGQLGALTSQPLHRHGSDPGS

Compound | pIC50
CCc1nc2ccc(Cl)cn2c1C(=O)NCc1ccc(N2CCN(S(=O)(=O)C(F)(F)F)C=N2)c(F)c1 [Compound 9] | < 5.00

tested on: not listed separately; assay: Microsomal stability CLint (M); settings: mouse, microsomes

Compound | microsomal CLint [µL/min/mg]
CCc1nc2ccc(Cl)cn2c1C(=O)NCc1ccc(N2CCN(S(=O)(=O)C(F)(F)F)C=N2)c(F)c1 [Compound 9] | 41

tested on: Cyp-450 (cocktail, isoforms not named); assay: Cocktail Cyp-450 inhibition; assay type: in vitro ADME; settings: unit inferred; read-out: Cocktail Cyp-450, IC50
Source text: as §1

Compound | pIC50
CCc1nc2ccc(Cl)cn2c1C(=O)NCc1ccc(N2CCN(S(=O)(=O)C(F)(F)F)C=N2)c(F)c1 [Compound 9] | < 4.70

tested on: Na Ch; assay: CVS panel, Na channel; settings: not given

Compound | pIC50
CCc1nc2ccc(Cl)cn2c1C(=O)NCc1ccc(N2CCN(S(=O)(=O)C(F)(F)F)C=N2)c(F)c1 [Compound 9] | < 5.00

tested on: not listed separately; assay: Microsomal stability CLint (H); settings: human, microsomes

Compound | microsomal CLint [µL/min/mg]
CCc1nc2ccc(Cl)cn2c1C(=O)NCc1ccc(N2CCN(S(=O)(=O)C(F)(F)F)C=N2)c(F)c1 [Compound 9] | 19

Reference: patent US20220340564A1, “ANTIBACTERIAL COMPOUNDS” (Janssen Sciences Ireland Unlimited Company, priority 2019, published 2022)
